Here are results for three compounds from publication PMC10746543, “Design principles for cyclin K molecular glue degraders” (Nature Chemical Biology, 2023).

Structures are written as SMILES. Values joined by “and” are separate entries in the source; they are usually repeats but may differ in a detail not shown here. Equal values may be shown once. Read-outs that look alike come from different tables or passages of the source.

The target in one assay is T1, CDK12–cyclin K and DDB1 (Homo sapiens, UniProt Q16531+Q9NYV4, K965R).
T1 construct: His6–CDK12 (a.a. 713–1,052); full-length or beta-propeller B domain deletion (ΔBPB: a.a. 396–705 deleted) constructs of His6–DDB1ΔBPB, StrepII–Avi–DDB1, or His6–Spy–DDB1; made in house; host or cells: Trichoplusia ni High Five insect cells (baculovirus)
T1 sequence (Q9NYV4 713-1052 K965R): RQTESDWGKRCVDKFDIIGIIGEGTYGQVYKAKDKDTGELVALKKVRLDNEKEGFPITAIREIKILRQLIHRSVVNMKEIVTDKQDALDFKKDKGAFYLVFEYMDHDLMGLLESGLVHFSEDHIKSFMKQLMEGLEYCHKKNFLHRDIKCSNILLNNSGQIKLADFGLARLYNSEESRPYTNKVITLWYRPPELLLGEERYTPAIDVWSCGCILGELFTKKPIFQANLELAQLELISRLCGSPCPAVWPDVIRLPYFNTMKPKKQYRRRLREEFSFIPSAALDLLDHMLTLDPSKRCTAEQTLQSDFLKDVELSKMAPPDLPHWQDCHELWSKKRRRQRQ
T1 sequence (O75909 1-267 partner): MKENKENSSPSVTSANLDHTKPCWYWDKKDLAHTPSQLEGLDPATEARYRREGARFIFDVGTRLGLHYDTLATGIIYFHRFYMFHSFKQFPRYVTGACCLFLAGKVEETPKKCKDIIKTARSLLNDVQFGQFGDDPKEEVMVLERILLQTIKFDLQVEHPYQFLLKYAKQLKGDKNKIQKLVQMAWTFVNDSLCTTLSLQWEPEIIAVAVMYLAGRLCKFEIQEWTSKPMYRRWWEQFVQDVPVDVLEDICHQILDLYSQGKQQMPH
T1 sequence (Q16531 whole entry): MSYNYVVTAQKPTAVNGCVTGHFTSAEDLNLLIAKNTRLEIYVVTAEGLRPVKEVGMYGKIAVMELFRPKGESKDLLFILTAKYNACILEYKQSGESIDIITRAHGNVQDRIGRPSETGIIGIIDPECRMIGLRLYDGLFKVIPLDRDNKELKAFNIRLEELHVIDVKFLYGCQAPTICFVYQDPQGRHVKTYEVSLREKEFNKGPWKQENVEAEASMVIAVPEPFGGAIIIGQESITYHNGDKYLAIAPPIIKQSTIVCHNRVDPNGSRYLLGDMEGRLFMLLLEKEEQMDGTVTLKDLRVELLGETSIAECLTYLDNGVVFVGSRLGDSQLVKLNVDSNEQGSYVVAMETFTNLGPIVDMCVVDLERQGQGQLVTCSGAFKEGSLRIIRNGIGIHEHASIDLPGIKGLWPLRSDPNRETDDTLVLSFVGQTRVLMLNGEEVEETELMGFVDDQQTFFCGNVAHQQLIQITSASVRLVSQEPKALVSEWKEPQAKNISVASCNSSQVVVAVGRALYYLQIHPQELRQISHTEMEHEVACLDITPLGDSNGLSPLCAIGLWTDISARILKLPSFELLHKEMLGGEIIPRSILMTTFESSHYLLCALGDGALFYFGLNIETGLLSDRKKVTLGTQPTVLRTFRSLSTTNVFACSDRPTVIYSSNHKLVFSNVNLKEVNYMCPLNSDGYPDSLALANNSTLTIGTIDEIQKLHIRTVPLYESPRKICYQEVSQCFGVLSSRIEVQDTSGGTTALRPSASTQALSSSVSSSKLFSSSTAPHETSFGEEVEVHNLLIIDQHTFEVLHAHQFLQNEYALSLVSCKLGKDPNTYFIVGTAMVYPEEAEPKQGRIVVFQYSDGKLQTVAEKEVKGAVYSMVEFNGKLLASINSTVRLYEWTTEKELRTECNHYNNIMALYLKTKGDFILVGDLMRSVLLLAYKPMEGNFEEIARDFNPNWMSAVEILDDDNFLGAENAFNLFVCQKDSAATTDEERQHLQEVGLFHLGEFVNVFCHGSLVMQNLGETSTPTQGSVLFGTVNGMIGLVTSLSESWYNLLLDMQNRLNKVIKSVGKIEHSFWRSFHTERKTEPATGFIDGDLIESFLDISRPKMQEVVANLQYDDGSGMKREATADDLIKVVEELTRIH
The assay is described as follows: TR-FRET ternary complex formation assay (compound titration). It counts as binding. The note with it: for TR-FRET signal at compound concentration: replicate titrations. A digest of the protocol: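 Signal was the ratio of 520 nm to 490 nm fluorescence, measured after a 70 μs delay that reduced background.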
In general terms: In TR-FRET formats the signal depends on donor and acceptor labels being close together.

For assay [1], the system named is cyclin K–eGFP degradation reporter. The assay is described as follows: Cyclin K reporter stability analysis (dual-color cyclin K–eGFP reporter). The class given is cell-based, human. A digest of the protocol:
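HEK293T–Cas9 cells carrying the cyclin K–eGFP reporter were seeded at 1 × 10^6 ml^−1 and exposed to drug or DMSO for 5 h. Flow cytometry gave geometric means of eGFP and mCherry in round, mCherry-positive cells. The eGFP/mCherry ratio was normalized to the mean of three DMSO controls.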

The subject of another assay is HEK293T cells. The assay can be described thus: Drug sensitivity assay (CellTiter-Glo viability) with or without MLN4924 pretreatment. It counts as cell-based, human. The note with it: Supplementary Table 2; for EC50: Homo sapiens, HEK-293T, HEK293T viability, 72 h, compound alone, read-out: Cellular assays EC50; for Toxicity rescue: MLN4924-mediated cytotoxicity rescue, 10 µM used where n.d. In short, it runs like this:
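HEK293T–Cas9, 0.15 × 10^6 ml^−1; pretreat DMSO vs 100 nM MLN4924; drugs dispensed after 2 h; 3 d exposure; CellTiter-Glo; viability vs DMSO control.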
(ATP-based viability assays read luminescence as a measure of living cells.)

Where [2] appears, read: Supplementary Table 2, read-out: TR-FRET EC50 TR-FRET.
The mark [3] stands for this setting: compound concentration 79.2001 nM.
[4] abbreviates: compound concentration 158.4 nM.
The mark [5] stands for this setting: compound concentration 309.6 nM.
The mark [6] stands for this setting: compound concentration 626.401 nM.
Where [7] appears, read: compound concentration 1252.8 nM.
The mark [8] stands for this setting: compound concentration 9936.01 nM.
[9] abbreviates: compound concentration 20016 nM.
Setting [10] is: in vitro complex formation, 50 nM CDK12–cyclin K, 100 nM DDB1, text and figures, read-out: TR-FRET EC50.
Setting [11] is: sheet MOESM7, read-out: log TR-FRET EC50 (converted).
[12] abbreviates: Supplementary Table 2, HEK293T cycK-eGFP reporter, 5 h, read-out: Cellular assays DC50.

The term EC50 denotes the concentration giving half of the maximal effect. Broadly, the DC50 is the concentration giving 50% degradation. Regarding `CC[C@H](CO)Nc1nc(NCCCc2ccnn2C)c2ncn(C(C)C)c2n1` [DS35], the EC50 at CDK12–cyclin K and DDB1 (setting [2]) was 246 nM; at CDK12–cyclin K and DDB1 (setting [10]), 246 ± 10 nM; at CDK12–cyclin K and DDB1 (setting [11]) it was 246 nM; with HEK293T cells, > 10000 nM. Moreover, the “TR-FRET signal at compound concentration” value on CDK12–cyclin K and DDB1 (compound concentration 4.68 nM) was 0.1529 and 0.1552; at CDK12–cyclin K and DDB1 (compound concentration 21.6 nM), 0.228 and 0.2468; at CDK12–cyclin K and DDB1 (compound concentration 36 nM), 0.3788 and 0.4108; on CDK12–cyclin K and DDB1 (setting [3]), 0.6173 and 0.6444; at CDK12–cyclin K and DDB1 (setting [4]), 0.9157 and 0.9758; on CDK12–cyclin K and DDB1 (setting [5]), 1.283 and 1.333. Further, the “TR-FRET signal at compound concentration” value on CDK12–cyclin K and DDB1 (setting [6]) was 1.6242 and 1.675; on CDK12–cyclin K and DDB1 (setting [7]), 1.8781 and 1.924; at CDK12–cyclin K and DDB1 (compound concentration 2448 nM), 2.069 and 2.096; on CDK12–cyclin K and DDB1 (setting [8]), 2.24 and 2.273; on CDK12–cyclin K and DDB1 (setting [9]) it was 2.144 and 2.245. Also, the DC50 in assay [1] (setting [12]) was > 10000 nM. In addition, the Toxicity rescue in the assay on HEK293T cells came out at 0%.
Regarding `CC[C@H](CO)Nc1nc(NCc2ccc(-c3ccc4ccccc4c3)cc2)c2ncn(C(C)C)c2n1` [DS05], the EC50 at CDK12–cyclin K and DDB1 (setting [2]) was 935 nM; on CDK12–cyclin K and DDB1 (setting [10]), 936 ± 112 nM; on CDK12–cyclin K and DDB1 (setting [11]), 935 nM; in the assay with HEK293T cells it was > 10000 nM. The “TR-FRET signal at compound concentration” value at CDK12–cyclin K and DDB1 (compound concentration 4.68 nM) is 0.139 and 0.157; at CDK12–cyclin K and DDB1 (compound concentration 21.6 nM) it was 0.1423 and 0.1615; at CDK12–cyclin K and DDB1 (compound concentration 36 nM), 0.1531 and 0.1764; on CDK12–cyclin K and DDB1 (setting [3]), 0.1718 and 0.1914; on CDK12–cyclin K and DDB1 (setting [4]) it was 0.1925 and 0.2133; at CDK12–cyclin K and DDB1 (setting [5]), 0.2424 and 0.278. Besides, the “TR-FRET signal at compound concentration” value is 0.3125 and 0.3604 on CDK12–cyclin K and DDB1 (setting [6]); 0.4172 and 0.4741 at CDK12–cyclin K and DDB1 (setting [7]); 0.5249 and 0.5984 on CDK12–cyclin K and DDB1 (compound concentration 2448 nM); 0.656 and 0.7191 on CDK12–cyclin K and DDB1 (setting [8]); 0.5857 and 0.628 at CDK12–cyclin K and DDB1 (setting [9]). Also, the DC50 in assay [1] (setting [12]) was > 10000 nM. Besides, in the assay on HEK293T cells, the Toxicity rescue stood at 0%.
`CC[C@H](CO)Nc1nc(NCc2ccc(-c3cccnc3)cc2)c2ncn(C(C)C)c2n1` [DS45]: on CDK12–cyclin K and DDB1 (compound concentration 0.468 nM, raw titration data), the “TR-FRET signal at compound concentration 0.468 nM” value is 0.2618 and 0.2852. Further, the “TR-FRET signal at compound concentration 2.16 nM” value at CDK12–cyclin K and DDB1 (compound concentration 2.16 nM, raw titration data) was 0.3231 and 0.3368. Also, the “TR-FRET signal at compound concentration 3.6 nM” value on CDK12–cyclin K and DDB1 (compound concentration 3.6 nM, raw titration data) is 0.3927 and 0.4029. The “TR-FRET signal at compound concentration 7.92001 nM” value on CDK12–cyclin K and DDB1 (compound concentration 7.92001 nM, raw titration data) was 0.6005 and 0.5751. Moreover, the “TR-FRET signal at compound concentration 15.84 nM” value on CDK12–cyclin K and DDB1 (compound concentration 15.84 nM, raw titration data) was 0.9407 and 0.892. The “TR-FRET signal at compound concentration 30.96 nM” value at CDK12–cyclin K and DDB1 (compound concentration 30.96 nM, raw titration data) was 1.641 and 1.433. Also, the “TR-FRET signal at compound concentration 62.6401 nM” value at CDK12–cyclin K and DDB1 (compound concentration 62.6401 nM, raw titration data) is 2.534 and 2.304. Moreover, on CDK12–cyclin K and DDB1 (compound concentration 125.28 nM, raw titration data), the “TR-FRET signal at compound concentration 125.28 nM” value was 3.191 and 3.0985. In addition, the “TR-FRET signal at compound concentration 244.8 nM” value at CDK12–cyclin K and DDB1 (compound concentration 244.8 nM, raw titration data) is 3.469 and 3.534. Besides, the “TR-FRET signal at compound concentration 993.601 nM” value on CDK12–cyclin K and DDB1 (compound concentration 993.601 nM, raw titration data) was 3.64 and 3.842. The “TR-FRET signal at compound concentration 2001.6 nM” value at CDK12–cyclin K and DDB1 (compound concentration 2001.6 nM, raw titration data) is 3.5487 and 3.801. In addition, the EC50 at CDK12–cyclin K and DDB1 (setting [10]) was 45 ± 2 nM; on CDK12–cyclin K and DDB1 (setting [11]), 45.1 nM; on CDK12–cyclin K and DDB1 (source data sheet correlations, read-out: TR-FRET EC50), 45.1 nM; in the assay with HEK293T cells, 242 nM. Further, the DC50 in assay [1] (source data sheet correlations, read-out: DC50) worked out at 36 nM. The Toxicity rescue with HEK293T cells is given as 1302%.
